The structures appear in SMILES notation.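 Exposure lasted 48 hours, with cells grown in 96-well plates and compounds tested at five concentrations. GI50: concentration for 50% inhibition of growth.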 Activity calls are given as the source filed them. Rule as the data show it: active = GI50 up to about 1.1 µM and inactive = higher.

Among the test systems are EKVX; HCT-116; HL-60; HOP-18; HT-29; IGROV-1; K562; KM-20L2; KM12; LOX IMVI; RPMI-8226; RXF 393; SF-539; SK-MEL-5; SN12C; SNB-75; UACC-62; NCI-H522; SF-295; SK-OV-3.
What all share (experiment): inhibition of tumour cell growth, NCI panel, 48 h

Consider `c1ccc(-n2cnnc2-c2nsc3ccccc23)cc1`, for which the GI50 in the assay on EKVX is > 100 µM (inactive); in the assay on HCT-116, > 100 µM (inactive); with HL-60, > 100 µM (inactive); with HOP-18 it was 9.71 µM (inactive); in the assay with HT-29, > 100 µM (inactive); with IGROV-1, > 100 µM (inactive). The GI50 in the assay with K562, in the assay on KM-20L2, in the assay on KM12, in the assay on LOX IMVI, in the assay on RPMI-8226 and in the assay with RXF 393 was > 100 µM (inactive) each time. For the same compound, the GI50 in the assay on SF-539 was > 100 µM (inactive); in the assay on SK-MEL-5, > 100 µM (inactive); with SN12C, > 100 µM (inactive); in the assay with SNB-75 it was 29.5 µM (inactive); with UACC-62, > 100 µM (inactive).

Consider `COc1ccccc1OCC(COC(=O)Nc1ccccc1)OC(=O)Nc1ccccc1` (configuration not stated), for which the GI50 was > 100 µM (inactive) with EKVX; 61.1 µM (inactive) with HCT-116; 40.6 µM (inactive) in the assay on HL-60; 59.3 µM (inactive) in the assay with HOP-18; 59.8 µM (inactive) with HT-29; > 100 µM (inactive) with IGROV-1. Besides, the GI50 with K562 was > 100 µM (inactive); in the assay with KM-20L2, > 100 µM (inactive); with KM12, 68.4 µM (inactive); in the assay with LOX IMVI, 25.9 µM (inactive); in the assay on NCI-H522, 49.4 µM (inactive); in the assay with RXF 393 it was 12.8 µM (inactive). For the same compound, the GI50 in the assay on SF-295 was 39.1 µM (inactive); in the assay with SF-539 it was 17.2 µM (inactive); in the assay with SK-MEL-5, 79.3 µM (inactive); with SK-OV-3 it was > 100 µM (inactive); in the assay with SN12C it was 28.5 µM (inactive); in the assay with SNB-75, 17.1 µM (inactive). For the same compound, the GI50 in the assay on UACC-62 is 32.6 µM (inactive).

`COc1ccc(N2C(=O)/C(=C(\C)c3cc4ccccc4oc3=O)N=C2c2cc([N+](=O)[O-])ccc2Cl)cc1`: the GI50 was > 100 µM (inactive) with EKVX; 29.9 µM (inactive) in the assay on HCT-116; 22.9 µM (inactive) with HL-60; 85.1 µM (inactive) with HOP-18; 35.7 µM (inactive) in the assay with HT-29; 43.3 µM (inactive) with IGROV-1. The GI50 was 10.8 µM (inactive) in the assay with K562; 29.7 µM (inactive) in the assay with KM-20L2; 22.3 µM (inactive) in the assay with KM12; 34.5 µM (inactive) with LOX IMVI; 11.5 µM (inactive) in the assay with NCI-H522; 26.5 µM (inactive) with RPMI-8226. In addition, the GI50 is 17.1 µM (inactive) in the assay with SF-295; 29.9 µM (inactive) with SF-539; 30.6 µM (inactive) in the assay with SK-MEL-5; 57.7 µM (inactive) in the assay on SK-OV-3; 35 µM (inactive) with SN12C; 33.3 µM (inactive) in the assay with SNB-75. For the same compound, the GI50 in the assay on UACC-62 is 26.6 µM (inactive).

With `COc1ccc(/C=c2\sc3n(c2=O)CCN=3)cc1`, the GI50 in the assay on EKVX is > 100 µM (inactive); in the assay with HCT-116, > 100 µM (inactive); in the assay with HL-60, 69.3 µM (inactive); with HOP-18, 88.3 µM (inactive); in the assay on HT-29, > 100 µM (inactive); in the assay with K562, 43.7 µM (inactive). Besides, the GI50 is > 100 µM (inactive) with KM-20L2; > 100 µM (inactive) in the assay with KM12; 64.7 µM (inactive) in the assay with LOX IMVI; 84.5 µM (inactive) in the assay with NCI-H522; 31.1 µM (inactive) with RXF 393; > 100 µM (inactive) in the assay on SF-295. Also, the GI50 in the assay with SF-539 is > 100 µM (inactive); in the assay on SK-MEL-5, 80 µM (inactive); with SK-OV-3, > 100 µM (inactive); in the assay with SN12C, 75.7 µM (inactive); in the assay with SNB-75, 57.8 µM (inactive); in the assay with UACC-62, > 100 µM (inactive).

As for `CCOC(=O)c1ccc(N(CCOS(C)(=O)=O)CCOS(C)(=O)=O)cc1`, the GI50 with EKVX was 58.3 µM (inactive); in the assay with HCT-116, 30.1 µM (inactive); with HL-60 it was 39.9 µM (inactive); in the assay on HT-29, 51.6 µM (inactive); with IGROV-1, 88.5 µM (inactive); in the assay on K562, 24.3 µM (inactive). Besides, the GI50 in the assay with KM12 was 67.9 µM (inactive); with LOX IMVI, 48.4 µM (inactive); in the assay with NCI-H522, 12.9 µM (inactive); in the assay on RPMI-8226, 25.1 µM (inactive); with RXF 393, 20 µM (inactive); in the assay with SF-295, 51.1 µM (inactive). In addition, the GI50 was 25.1 µM (inactive) in the assay on SF-539, 42.2 µM (inactive) in the assay with SK-MEL-5 and 27.8 µM (inactive) in the assay on UACC-62.

`O=c1ccn([C@@H]2C=C(CO)[C@@H](O)[C@H]2O)c(=O)[nH]1`: the GI50 in the assay on HCT-116, in the assay on HL-60, in the assay with HOP-18, in the assay on HT-29, in the assay on IGROV-1 and in the assay with KM-20L2 was > 625 µM (inactive) each time. Further, the GI50 with KM12, with LOX IMVI, in the assay on NCI-H522, in the assay with RXF 393, in the assay with SF-295 and in the assay with SF-539 was > 625 µM (inactive) in each case. The GI50 was > 625 µM (inactive) with SK-MEL-5; > 625 µM (inactive) in the assay on SK-OV-3; > 625 µM (inactive) in the assay with SN12C; 90.4 µM (inactive) in the assay with SNB-75; > 625 µM (inactive) with UACC-62.

On to `O=c1cnn(C/C=C/CBr)c(=O)[nH]1`, for which the GI50 in the assay on EKVX was 19.6 µM (inactive); in the assay on HL-60, 8.47 µM (inactive); with HT-29 it was 13.8 µM (inactive); in the assay on IGROV-1, 16.2 µM (inactive); with K562, 21.4 µM (inactive); in the assay on KM12, 17.5 µM (inactive). In addition, the GI50 is 16.1 µM (inactive) in the assay on LOX IMVI; 8.17 µM (inactive) in the assay with NCI-H522; 5.48 µM (inactive) in the assay on RPMI-8226; 15.5 µM (inactive) with RXF 393; 16.1 µM (inactive) in the assay on SF-539; 13.1 µM (inactive) with SK-MEL-5. The results for the GI50 in the assay with SN12C and in the assay with SNB-75 were 17.9 µM (inactive) and 18.8 µM (inactive), respectively.

For `C[C@H]1O[C@@H](O[C@H]2[C@@H](O)C[C@H](O[C@H]3[C@@H](O)C[C@H](O[C@H]4CC[C@@]5(C)[C@H](CC[C@@H]6[C@@H]5CC[C@]5(C)[C@@H](C7=CC(=O)OC7)CC[C@]65O)C4)O[C@@H]3C)O[C@@H]2C)C[C@H](O)[C@@H]1O` [DIGITOXIN], the GI50 in the assay with EKVX was 0.0286 µM (active); in the assay with HCT-116, 0.0165 µM (active); with HT-29, 0.0338 µM (active); in the assay on IGROV-1 it was 0.0365 µM (active); in the assay with K562 it was < 0.0246 µM (active); in the assay with KM12, 0.0553 µM (active). Further, the GI50 was < 0.01 µM (active) in the assay with NCI-H522; 0.0292 µM (active) in the assay with RPMI-8226; 0.0175 µM (active) in the assay on RXF 393; 0.0258 µM (active) with SF-295; < 0.0123 µM (active) in the assay with SF-539; < 0.0212 µM (active) in the assay with SK-MEL-5. Also, the GI50 with SK-OV-3 is 0.045 µM (active); with SN12C, < 0.01 µM (active); in the assay with SNB-75 it was 0.0676 µM (active); in the assay on UACC-62 it was 0.0579 µM (active).

For the compound `C=C1C(=O)[C@@]23CC[C@H]4[C@@](C)(CCC[C@@]4(C)C(=O)OC)[C@@H]2CC[C@]1(O)C3`, the GI50 was 2.06 µM (inactive) with EKVX; 0.953 µM (active) in the assay on HCT-116; 0.301 µM (active) in the assay on HL-60; 2.07 µM (inactive) in the assay with HOP-18; 1.27 µM (inactive) in the assay with HT-29; 1.63 µM (inactive) in the assay with IGROV-1. Also, the GI50 with K562 is 0.604 µM (active); with KM12 it was 2.39 µM (inactive); in the assay with LOX IMVI it was 0.953 µM (active); in the assay on NCI-H522 it was 1.54 µM (inactive); with RPMI-8226, 0.286 µM (active); with SF-295, 5.82 µM (inactive). Also, the GI50 was 1.76 µM (inactive) in the assay on SF-539; 1.93 µM (inactive) with SK-MEL-5; 19.2 µM (inactive) with SK-OV-3; 1.77 µM (inactive) with SN12C; 2.37 µM (inactive) with SNB-75; 1.6 µM (inactive) in the assay on UACC-62.

On to `CN1COCN/C1=N/C#N`, for which the GI50 with EKVX, in the assay on HCT-116, with HL-60, in the assay on HOP-18, with HT-29 and in the assay with IGROV-1 was > 100 µM (inactive) in each case. Besides, the GI50 with K562, in the assay on KM-20L2, in the assay with KM12, with LOX IMVI, in the assay on NCI-H522 and with RPMI-8226 was > 100 µM (inactive) throughout. For the same compound, the GI50 in the assay with SF-295, in the assay on SF-539, with SK-OV-3, with SN12C, in the assay with SNB-75 and in the assay on UACC-62 was > 100 µM (inactive) throughout.

With `CCOP(=O)(COCCn1ncc(=O)[nH]c1=O)OCC`, the GI50 with EKVX, in the assay on HL-60, in the assay on HT-29, in the assay with IGROV-1, in the assay with KM12 and in the assay on LOX IMVI was > 100 µM (inactive) in each case. In addition, the GI50 with NCI-H522, in the assay with RPMI-8226, in the assay on RXF 393, with SF-539, in the assay with SK-MEL-5 and in the assay with SN12C was > 100 µM (inactive) in each case. In the assay on SNB-75, the GI50 was > 100 µM (inactive).

Turning to `NCCCN(CCCN)CCN(CCN(CCCN)CCCN)CCN(CCCN)CCCN`, the GI50 in the assay with HCT-116 was > 100 µM (inactive); in the assay on HL-60, > 100 µM (inactive); in the assay on HT-29 it was > 100 µM (inactive); with IGROV-1 it was > 100 µM (inactive); with K562, > 100 µM (inactive); in the assay with LOX IMVI, 67.8 µM (inactive). Also, the GI50 with NCI-H522 is 17 µM (inactive); in the assay with RPMI-8226, > 100 µM (inactive); in the assay with SF-295 it was 55.6 µM (inactive); with SK-MEL-5 it was > 100 µM (inactive); with SK-OV-3, 48.4 µM (inactive); with SN12C, > 100 µM (inactive). The GI50 with SNB-75 is 4.95 µM (inactive).
